# Where “and” joins values, the source holds several entries; their conditions need not be identical. Identical values can stand only once.
# What was measured:
# Botrytis cinerea [1] = test: Treatment of strawberries: wounded, inoculated with Botrytis cinerea, then dipped in antifungal composition; format: in vivo
# Protocol: (§1) Ten fresh, organic strawberries were used per treatment. Each strawberry was wounded with a 0.5 mm long cut and each wound was inoculated with 10 μl of a Botrytis cinerea suspension containing 1×10^5 of spores/ml. […] The pH of the compositions was 4. A composition without natamycin or bixafen was used as control. The treated strawberries were incubated in a closed box in the dark at 20° C.
# (§2) During incubation, mould growth on the strawberries was assessed in a twofold manner: (i) the number of moulded strawberries per total of 10 strawberries was counted; and (ii) the antifungal activity (in %) of the individual and combined active ingredients was determined by calculating the reduction in mould growth observed on the strawberries treated with the antifungal composition in comparison to the mould growth on the strawberries treated with the control composition. The expected antifungal activity (E in %) of the combined antifungal composition comprising both active ingredients was calculated according to the Colby equation (Colby, 1967): E=X+Y−[(X·Y)/100] wherein X and Y are the observed antifungal activities (in %) of the individual active ingredients X and Y, respectively. If the observed antifungal activity (O in %) of the combination exceeds the expected antifungal activity (E in %) of the combination and the synergy factor O/E is thus >1.0, the combined application of the active ingredients leads to a synergistic antifungal effect.
# The treated strawberries were assessed on mould growth. The antifungal activity (in %) of the individual and combined active ingredients was determined according to the method described in Example 3. […]
# Botrytis cinerea [2] = test: Treatment of strawberries: wounded, dipped in antifungal composition, then inoculated with Botrytis cinerea; format: in vivo; settings: 1000 ppm bixafen or both
# Protocol: as §1, §2
# After treatment, each strawberry was inoculated with 10 μl of a Botrytis cinerea suspension containing 1×10^5 of spores/ml. The treated strawberries were assessed on mould growth according to the two methods described in Example 3.
# Penicillium italicum [3] = test: Treatment of mandarins wounded and inoculated with Penicillium italicum, then dipped; format: in vivo
# Protocol: (§3) Ten fresh, organic mandarins were used per treatment. The peel of each mandarin was wounded once using a cork borer according to the method described by de Lapeyre de Bellaire and Dubois (1987). Subsequently, each wound was inoculated with 10 μl of a Penicillium italicum suspension containing 1×10^5 of spores/ml. […] The pH of the compositions was 4.
# The treated mandarins were incubated in a closed box in the dark at 20° C. and assessed on mould growth during incubation.
# Penicillium italicum [4] = test: Treatment of apples wounded and inoculated with Penicillium italicum, then dipped; format: in vivo; settings: for Number of moulded apples/total number of 10 apples: 500 ppm natamycin; for Number of moulded apples per total of 10 apples: 250 ppm natamycin
# Protocol: as §3, with “apples” for “mandarins”, “Each apple” for “The peel of each mandarin”, “1×10^6” for “1×10^5”, “4. A composition without natamycin or bixafen was used as control. The treated apples were incubated in a closed box in the dark at 20° C. […]” for “4.”
# During incubation, the treated apples were assessed on mould growth according to the two methods described in Example 3. […]
# Penicillium italicum [5] = test: In vitro antifungal activity, 96-well microtiter plates; format: cell-based; settings: 25° C.
# Protocol: Subsequently, 100 μl of a Botrytis cinerea suspension prepared in PCB medium was used to inoculated each well with 2.5×10^3 spores/ml.
# After incubation of the microtiter plates at 25° C., the in vitro antifungal activity (%) of the individual active ingredients was assessed by calculating the reduction in mould growth observed in the presence of the active ingredient in comparison to the mould growth observed in the absence of the active ingredient. The expected antifungal activity (E in %) of the active ingredient combination was calculated according to the Colby equation (Colby, 1967): E=X+Y−[(X·Y)/100] wherein X and Y are the observed antifungal activities (in %) of the individual active ingredients X and Y, respectively. If the observed antifungal activity (O in %) of the combination exceeds the expected antifungal activity (E in %) of the combination and the resulting synergy factor O/E is thus >1.0, the combined application of the active ingredients leads to a synergistic antifungal effect.
# Furthermore, Penicillium italicum was used for inoculation.
# [6] = day 3, 500 ppm natamycin, 2000 ppm bixafen or both
# [7] = day 4, 250 ppm natamycin, 250 ppm bixafen or both
# [8] = day 4, 250 ppm natamycin, 500 ppm bixafen or both
# [9] = day 4, 500 ppm natamycin, 2000 ppm bixafen or both
# [10] = day 6, 250 ppm natamycin, 250 ppm bixafen or both
# [11] = day 6, 250 ppm natamycin, 500 ppm bixafen or both
# [12] = day 6, 500 ppm natamycin, 2000 ppm bixafen or both
# [13] = day 7, 250 ppm natamycin, 250 ppm bixafen or both
# [14] = day 7, 250 ppm natamycin, 500 ppm bixafen or both
# [15] = day 9, 250 ppm natamycin, 500 ppm bixafen or both
# [16] = day 9, 500 ppm natamycin, 2000 ppm bixafen or both
# [17] = day 6, 500 ppm natamycin, 1000 ppm bixafen or both
# [18] = day 11, 500 ppm natamycin, 2000 ppm bixafen or both
# [19] = day 14, 500 ppm natamycin, 1000 ppm bixafen or both
# [20] = day 14, 500 ppm natamycin, 2000 ppm bixafen or both
structure (smiles),measurement,setting,value
"C[C@@H]1C/C=C/C=C/C=C/C=C/[C@H](O[C@@H]2O[C@H](C)[C@@H](O)[C@H](N)[C@@H]2O)C[C@@H]2O[C@](O)(C[C@@H](O)C[C@H]3O[C@@H]3/C=C/C(=O)O1)C[C@H](O)[C@H]2C(=O)O [Natamycin, natamycin]",Number of moulded strawberries/total number of 10 strawberries,"Botrytis cinerea [1]; Day 3, 20° C., 250 ppm natamycin, 250 ppm bixafen or both",8 and 8/10
same,Number of moulded strawberries/total number of 10 strawberries,"Botrytis cinerea [1]; Day 3, 20° C., 500 ppm natamycin, 2000 ppm bixafen or both",10 and 10/10
same,Number of moulded strawberries/total number of 10 strawberries,"Botrytis cinerea [1]; Day 4, 20° C., 250 ppm natamycin, 250 ppm bixafen or both",10 and 10/10
same,Number of moulded strawberries/total number of 10 strawberries,"Botrytis cinerea [1]; Day 4, 20° C., 500 ppm natamycin, 2000 ppm bixafen or both",10 and 10/10
same,Number of moulded strawberries/total number of 10 strawberries,"Botrytis cinerea [1]; Day 5, 20° C., 250 ppm natamycin, 250 ppm bixafen or both",10 and 10/10
same,Number of moulded strawberries/total number of 10 strawberries,"Botrytis cinerea [1]; Day 5-6, 20° C., 500 ppm natamycin, 2000 ppm bixafen or both",10 and 10/10
same,Observed antifungal activity O (%),Botrytis cinerea [1]; [6],21%
same,Observed antifungal activity O (%),Botrytis cinerea [1]; [7],6%
same,Observed antifungal activity O (%),Botrytis cinerea [1]; [8],6%
same,Observed antifungal activity O (%),Botrytis cinerea [1]; [9],16%
same,Observed antifungal activity O (%),"Botrytis cinerea [1]; day 5, 250 ppm natamycin, 250 ppm bixafen or both",2%
same,Observed antifungal activity O (%),"Botrytis cinerea [1]; day 5, 500 ppm natamycin, 2000 ppm bixafen or both",3%
same,Observed antifungal activity O (%),Botrytis cinerea [1]; [10],0%
same,Observed antifungal activity O (%),Botrytis cinerea [1]; [11],0%
same,Observed antifungal activity O (%),Botrytis cinerea [1]; [12],0%
same,Observed antifungal activity O (%),Botrytis cinerea [1]; [13],0%
same,Observed antifungal activity O (%),Botrytis cinerea [1]; [14],0%
same,Observed antifungal activity O (%),"Botrytis cinerea [1]; day 7, 500 ppm natamycin, 2000 ppm bixafen or both",0%
same,Observed antifungal activity O (%),Botrytis cinerea [1]; [15],0%
same,Observed antifungal activity O (%),Botrytis cinerea [1]; [16],0%
same,Observed antifungal activity O (%),"Botrytis cinerea [1]; day 10, 250 ppm natamycin, 500 ppm bixafen or both",0%
same,Observed antifungal activity O (%),"Botrytis cinerea [2]; day 3, 500 ppm natamycin",59%
same,Number of moulded wounds/total number of 10 wounds,"Botrytis cinerea [2]; day 5, 20° C., 250 ppm natamycin",10 and 10/10
same,Observed antifungal activity O (%),"Botrytis cinerea [2]; day 5, 500 ppm natamycin",19%
same,Observed antifungal activity O (%),"Botrytis cinerea [2]; day 6, 500 ppm natamycin",12%
same,Observed antifungal activity O (%),"Penicillium italicum [3]; day 3, 250 ppm natamycin, 250 ppm bixafen or both",70%
same,Observed antifungal activity O (%),Penicillium italicum [3]; [7],43%
same,Observed antifungal activity O (%),Penicillium italicum [3]; [8],43%
same,Observed antifungal activity O (%),"Penicillium italicum [3]; day 4, 500 ppm natamycin, 1000 ppm bixafen or both",63%
same,Observed antifungal activity O (%),Penicillium italicum [3]; [9],63%
same,Observed antifungal activity O (%),Penicillium italicum [3]; [10],18%
same,Observed antifungal activity O (%),Penicillium italicum [3]; [11],18%
same,Observed antifungal activity O (%),Penicillium italicum [3]; [17],28%
same,Observed antifungal activity O (%),Penicillium italicum [3]; [12],28%
same,Observed antifungal activity O (%),Penicillium italicum [3]; [13],10%
same,Observed antifungal activity O (%),Penicillium italicum [3]; [14],10%
same,Observed antifungal activity O (%),"Penicillium italicum [3]; day 7, 500 ppm natamycin, 1000 ppm bixafen or both",16%
same,Observed antifungal activity O (%),"Penicillium italicum [3]; day 9, 250 ppm natamycin, 250 ppm bixafen or both",8%
same,Observed antifungal activity O (%),Penicillium italicum [3]; [15],8%
same,Observed antifungal activity O (%),"Penicillium italicum [3]; day 11, 250 ppm natamycin, 500 ppm bixafen or both",13%
same,Observed antifungal activity O (%),Penicillium italicum [3]; [18],13%
same,Observed antifungal activity O (%),"Penicillium italicum [3]; day 13, 250 ppm natamycin, 500 ppm bixafen or both",12%
same,Observed antifungal activity O (%),Penicillium italicum [3]; [19],9%
same,Observed antifungal activity O (%),Penicillium italicum [3]; [20],9%
same,Observed antifungal activity O (%),"Penicillium italicum [3]; day 15, 250 ppm natamycin, 500 ppm bixafen or both",6%
same,Observed antifungal activity O (%),"Penicillium italicum [3]; day 15, 500 ppm natamycin, 1000 ppm bixafen or both",5%
same,Observed antifungal activity O (%),"Penicillium italicum [3]; day 15, 500 ppm natamycin, 2000 ppm bixafen or both",5%
same,Number of moulded apples/total number of 10 apples,"Penicillium italicum [4]; Day 3, 20° C., 1000 ppm bixafen or both",9 and 9/10
same,Number of moulded apples/total number of 10 apples,"Penicillium italicum [4]; Day 3-4, 20° C., 2000 ppm bixafen or both",9 and 9/10
same,Number of moulded apples/total number of 10 apples,"Penicillium italicum [4]; Day 4, 20° C., 1000 ppm bixafen or both",9 and 9/10
same,Number of moulded apples per total of 10 apples,"Penicillium italicum [4]; Day 6, 20° C., 500 ppm bixafen or both",10 and 10/10
same,Number of moulded apples/total number of 10 apples,"Penicillium italicum [4]; Day 6, 20° C., 1000 ppm bixafen or both",10 and 10/10
same,Number of moulded apples/total number of 10 apples,"Penicillium italicum [4]; Day 6, 20° C., 2000 ppm bixafen or both",10 and 10/10
same,Number of moulded apples per total of 10 apples,"Penicillium italicum [4]; Day 6-9, 20° C., 250 ppm bixafen or both",all and 10/10
same,Number of moulded apples per total of 10 apples,"Penicillium italicum [4]; Day 7, 20° C., 500 ppm bixafen or both",10 and 10/10
same,Number of moulded apples/total number of 10 apples,"Penicillium italicum [4]; Day 7, 20° C., 1000 ppm bixafen or both",10 and 10/10
same,Number of moulded apples/total number of 10 apples,"Penicillium italicum [4]; Day 7, 20° C., 2000 ppm bixafen or both",10 and 10/10
same,Number of moulded apples per total of 10 apples,"Penicillium italicum [4]; Day 9, 20° C., 500 ppm bixafen or both",10 and 10/10
same,Number of moulded apples/total number of 10 apples,"Penicillium italicum [4]; Day 9-14, 20° C., 1000 ppm bixafen or both",all and 10/10
same,Number of moulded apples/total number of 10 apples,"Penicillium italicum [4]; Day 9-14, 20° C., 2000 ppm bixafen or both",all and 10/10
same,Number of moulded apples per total of 10 apples,"Penicillium italicum [4]; Day 11-15, 20° C., 250 ppm bixafen or both",all and 10/10
same,Observed antifungal activity O (%),"Penicillium italicum [4]; day 3, 500 ppm natamycin, 1000 ppm bixafen or both",33%
same,Observed antifungal activity O (%),Penicillium italicum [4]; [6],33%
same,Observed antifungal activity O (%),"Penicillium italicum [4]; day 6, 250 ppm natamycin, 250 ppm bixafen or both (bixafen 500 ppm)",38%
same,Observed antifungal activity O (%),Penicillium italicum [4]; [11],38%
same,Observed antifungal activity O (%),Penicillium italicum [4]; [17],6%
same,Observed antifungal activity O (%),Penicillium italicum [4]; [12],6%
same,Observed antifungal activity O (%),Penicillium italicum [4]; [14],42%
same,Observed antifungal activity O (%),"Penicillium italicum [4]; day 9, 250 ppm natamycin, 250 ppm bixafen or both (bixafen 500 ppm)",35%
same,Observed antifungal activity O (%),Penicillium italicum [4]; [15],35%
same,Observed antifungal activity O (%),"Penicillium italicum [4]; day 9, 500 ppm natamycin, 1000 ppm bixafen or both",21%
same,Observed antifungal activity O (%),Penicillium italicum [4]; [16],21%
same,Observed antifungal activity O (%),"Penicillium italicum [4]; day 11, 250 ppm natamycin, 250 ppm bixafen or both (bixafen 500 ppm)",42%
same,Observed antifungal activity O (%),"Penicillium italicum [4]; day 11, 500 ppm natamycin, 1000 ppm bixafen or both",26%
same,Observed antifungal activity O (%),Penicillium italicum [4]; [18],26%
same,Observed antifungal activity O (%),"Penicillium italicum [4]; day 14, 250 ppm natamycin, 250 ppm bixafen or both (bixafen 500 ppm)",49%
same,Observed antifungal activity O (%),Penicillium italicum [4]; [19],30%
same,Observed antifungal activity O (%),Penicillium italicum [4]; [20],30%
same,Observed antifungal activity O (%),"Penicillium italicum [5]; day 10, 0.63 ppm natamycin, 25 ppm isopyrazam or both",0%
same,Observed antifungal activity O (%),"Penicillium italicum [5]; day 10, 1.25 ppm natamycin, 25 ppm bixafen or both",0%

# Reference: patent US9167822B2, “Antifungal compositions” (DSM IP ASSETS B.V., priority 2012, dated 2015)
